The values that follow are results of earlier work, collected in US20210077417A1, “Methods and Compositions Particularly for Treatment of Attention Deficit Disorder” (Purdue Pharma L.P., priority 2018, published 2021).

Structures can show the parent of a compound that is named as a salt. Where two headings read alike, the source gives them in different places.

The subject of one data set is patients with ADHD. The following applies: reported.

Take `COC(=O)C(c1ccccc1)C1CCCCN1` (racemic) [Methylphenidate, dl-threo-methyl-2-phenyl-2-(2-piperidyl)acetate]: the Stability result reads like this: (acidic solutions) “relatively stable”; (basic solutions) “degraded extensively”. For the same molecule, for the setting “as the pH increases to 8.9”, the “Degradation amount (hydrolysis of the methyl ester)” value is “up to 100%”.
As for lisdexamfetamine dimesylate, in the data set with patients with ADHD, the Duration of action entry is “up to 14 hours” and the Onset of action entry is listed as “does not have a rapid onset of action”.
In the case of `COC(=O)C(c1ccccc1)C1CCCCN1` (stereo not shown) [Methylphenidate hydrochloride], the Solubility result (in acetone) was “slightly soluble”; the Solubility result (in alcohol) was “soluble”; the Solubility result (in chloroform) is on record as “slightly soluble”; the Solubility result (in methanol) is on record as “freely soluble”; the Solubility result (in water) is reported as “freely soluble”.
